Reference: patent publication US9326989B2, “Oleyl phosphocholine” (Max-Planck-Gesellschaft zur Foerderung der Wissenschaften …, priority 2007, dated 2016)

Assays:
canine leishmaniasis = test: dosage range (start of activity to start of toxicity) in dog; assay type: in vivo; conditions: higher doses not tolerated, lower doses almost ineffective
[1] = renal values (creatinine) in long-term applications; assay type: in vivo; conditions: long-term applications over several months, therapeutically effective dosages
Source text: Oleyl phosphocholine is the first alkyl phosphocholine which can be used orally and intravenously.

[2] = stability in injection or infusion solutions or tablets; assay type: physicochemical; conditions: 30° C.
Source text: For use in veterinary medicine, it is also useful that mixtures of oleyl phosphocholine (90%) and hexadecyl phosphocholine (10%) can be used and can be made available extremely inexpensively from olive oil.

[3] = animal experiments

CCCCCCCCCCCCCCCCOP(=O)([O-])OCC[N+](C)(C)C [HePC, hexadecyl phosphocholine]
dose at which activity against canine leishmaniasis started (canine leishmaniasis): 3 mg per kg body weight per day

CCCCCCCC/C=C\CCCCCCCCOP(=O)([O-])OCC[N+](C)(C)C [OlPC, oleyl phosphocholine]
renal values (increase in creatinine) [1]: no deterioration in the renal values
stability [2]: can be guaranteed over a longer period
therapeutic action compared to C18-PC (octadecyl) and C18:1(trans)-PC (elaidyl) [3]: markedly superior
